# Literature values as cited in paper PMC11676896, “Protective Action of Cannabidiol on Tiamulin Toxicity in Humans—In Vitro Study” (International Journal of Molecular Sciences, 2024).
# Experiments:
# CYP1A1 = system: CYP1A1; set-up: method as in PMID 26187180; settings: cited from earlier work
# [1] = set-up: method as in previous studies; settings: CBD 1.56 and 3.125 µg/mL; ref previous studies; cited from earlier work
smiles,measurement,setting,value
"C=C(C)[C@@H]1CCC(C)=C[C@H]1c1c(O)cc(CCCCC)cc1O [CBD, cannabidiol]",induction of CYP1A1 expression,CYP1A1,strongest inducer of CYP1A1 expression
same,cell viability with CBD alone,[1],did not show a decrease in cell viability
